Assay results reported in EP2135864A1, “5-(4-methanesulfonyl-phenyl)-thiazole derivatives for the treatment of acute and chronic inflammatory diseases” (FAES FARMA, S.A., priority 2008, dated 2009).

Assays:
Format in all cases: cell-based, human
[1] = tested on: CD62L; assay: Shedding of CD62L in monocytes of PBMC, flow cytometry; conditions: monocytes of PBMC from healthy volunteers, mean ± standard error, n=10, vehicle 65.34±8.06
[2] = tested on: TNF-alpha; assay: TNF-alpha production by PBMC from healthy volunteers, Cytometric Bead Array (CBA); conditions: 24 hours, mean ± standard error, n=13
Description: (§1) CBA protocol was followed according to the manufacturer's instructions. The election of microparticles was performed following the summary of Figure 1.
(§2) The acquisition on samples was performed with the BD FACS Array Bioanalyser System (FACSArray, Becton Dickinson, San José, CA, USA) and the analysis of the results was completed with the software FCAP Array (Becton Dickinson) in a PC computer.
(§3) Briefly, the experimental protocol consisted of a plate pre-washing out with Wash Buffer. After decantation, the mixture of capture microparticles was re-suspended in the vortex. Standards and samples were added in the adequate dilution. After permanent stirring incubation during 1 h, the PE detection reagent was added and incubated again during 2h at room temperature. After a washing-out, the acquisition was performed in the flow cytometer. Table 3. -Kit CBA Human Soluble Protein Multiplex Flex Set System.
PBMC (5 x 10^4 cells/well) from 13 healthy volunteers were cultured in duplicate in 200 µl of complete medium supplemented with the highest solvent concentration (10^-6 M), […] the absence of LPS (10µg/ml) during 24 hours. Supernatant of cultures were frozen at -20°C and quantification was carried out by BD FACS Array Bioanayliser (BD Biosciences Cat No. 340128, San Diego CA 92121) by using specific reagents for the simultaneous assay of the indicated cytokines concentration (CBA Flex Multiplex Set (BD™ Cytometric Bead Array, CBA: IL-8, IL-10, TNF-alpha and IFN-gamma Becton Dickinson Biosciences Pharmingen, San Diego CA 92121).

[3] = tested on: IL-10; assay: IL-10 production by PBMC from patients with rheumatoid arthritis, CBA; conditions: 24 hours, mean ± standard error, n=8
Description: as §1, §2, §3
On the other hand, PBMC (5 x 10^4 cells per well) from 8 patients with rheumatoid arthritis were cultured in duplicate in 200 µl of complete medium supplemented with the highest solvent concentration (10^-6 M), and 10^-6 M, 10^-7 M and 10^-8 M of compound 12 in the presence and absence of either LPS (10 µg/ml) or anti-CD3 (12.5 ng/ml), + anti-CD28 (1/3x10^5), during 24 hours. Culture supernatants were frozen at -20°C and IL-10 concentration was assayed by BD FACS Array Bioanalyser by using CBA Flex Set, specific to determine IL-10 concentration, following the manufacturer instructions.

[4] = tested on: IFN-gamma; assay: IFN-gamma production by PBMC from healthy volunteers, CBA; conditions: 24 hours, mean ± standard error, n=13
Description: as §1, §2, §3
PBMC (5 x 10^4 cells per well) from 13 healthy volunteers were cultured in duplicate in 200 µl of complete medium supplemented with the highest solvent concentration (10^-6 M), and 10^-6 M, 10^-7 M and 10^-8 M of compound 12 in the presence or absence, either of LPS (10 µg/ml), or anti-CD3 (12.5 ng/ml) + anti-CD28 (1/3x10^5), during 24 hours. Culture supernatants were frozen at -20°C and the concentration of IFN-gamma was quantified by BD FACS Array Bioanalyser by using CBA Flex Set (Becton Dickinson), specific to determine the concentration of IFN-gamma, following the manufacturer instructions.

[5] = tested on: TNF-alpha; assay: TNF-alpha production by PBMC from patients with rheumatoid arthritis, CBA; conditions: 24 hours, mean ± standard error, n=7
Description: as §1, §2, §3
In another experiment, PBMC (5 x 10^4 cells per well) from 7 patients with rheumatoid arthritis were cultured in duplicate in 200 µl of complete medium supplemented with the highest solvent (10^-6 M), and 10^-6 M, 10^-7 M and 10^-8 M compound 12 and in the presence and absence of either LPS (10 µg/ml), or anti-CD3 (12.5ng/ml) (Orthoclone OKT3, Ortho Pharmaceutical Corporation, Raritan NJ, USA) + anti-CD28 (1/3x10^5) (Clon 15E8, Menarini, Madrid, Spain), during 24 hours. Culture supernatants were frozen at -20°C and the concentration of TNF-alpha quantified by BD FACS Array Bioanalyser by using CBA Flex Set (Becton Dickinson), specific for determining the concentration of that cytokine, following the manufacturer instructions.

Cc1nc(OC2CCCC2)c(-c2ccc(S(C)(=O)=O)cc2)s1 [compound 12, 4-cyclopentyloxy-5-(4-methylsulfonyl-phenyl)-2-methylthiazole]
Mean fluorescence intensity of surface CD62L expression in monocytes (MFI) ([1]; 10^-6 M, p 0.721): 63.90±8.52 (0.721)
Mean fluorescence intensity of surface CD62L expression in monocytes (MFI) ([1]; 10^-7 M, p 0.878): 72.30±10.21 (0.878)
TNF-alpha production in PMBC from healthy volunteers ([2]; LPS (10µg/ml), 10^-6 M, vehicle 923.93±160.00, p 0.002): 602.12±100.00 (0.002) pg/mL
TNF-alpha production in PMBC from healthy volunteers ([2]; LPS (10µg/ml), 10^-7 M, vehicle 923.93±160.00, p 0.046): 746.84±125.00 (0.046) pg/mL
TNF-alpha production in PMBC from healthy volunteers ([2]; LPS (10µg/ml), 10^-8 M, vehicle 923.93±160.00, p 0.055): 738.81±100.00 (0.055) pg/mL
TNF-alpha production in PMBC from healthy volunteers ([2]; anti-CD3 (12.5 ng/ml) + anti-CD28 (1/3x10^5), 10^-6 M, vehicle 435.81±60.00, p 0.116): 334.21±63.00 (0.116) pg/mL
TNF-alpha production in PMBC from healthy volunteers ([2]; anti-CD3 (12.5 ng/ml) + anti-CD28 (1/3x10^5), 10^-7 M, vehicle 435.81±60.00, p 0.753): 404.11±97.00 (0.753) pg/mL
TNF-alpha production in PMBC from healthy volunteers ([2]; anti-CD3 (12.5 ng/ml) + anti-CD28 (1/3x10^5), 10^-8 M, vehicle 435.81±60.00, p 0.422): 355.62±65.00 (0.422) pg/mL
TNF-alpha production in PMBC from healthy volunteers ([2]; medium, 10^-6 M, vehicle 163.84±30.00, p 0.422): 148.31±50.00 (0.422) pg/mL
TNF-alpha production in PMBC from healthy volunteers ([2]; medium, 10^-7 M, vehicle 163.84±30.00, p 0.249): 197.81±40.00 (0.249) pg/mL
TNF-alpha production in PMBC from healthy volunteers ([2]; medium, 10^-8 M, vehicle 163.84±30.00, p 0.65): 168.49±16.00 (0.65) pg/mL
IL-10 production in PMBC from patients with rheumatoid arthritis ([3]; LPS (10µg/ml), 10^-6 M, vehicle 2388.64±300.00, p 0.069): 2787.12±416.91 (0.069) pg/mL
IL-10 production in PMBC from patients with rheumatoid arthritis ([3]; LPS (10µg/ml), 10^-7 M, vehicle 2388.64±300.00, p 0.327): 2597.85±513.19 (0.327) pg/mL
IL-10 production in PMBC from patients with rheumatoid arthritis ([3]; LPS (10µg/ml), 10^-8 M, vehicle 2388.64±300.00, p 0.025): 3000.00±400.00 (0.025) pg/mL
IL-10 production in PMBC from patients with rheumatoid arthritis ([3]; anti-CD3 (12.5 ng/ml) + anti-CD28 (1/3x10^5), 10^-6 M, vehicle 836.39±189.09, p 0.484): 976.96±187.99 (0.484) pg/mL
IL-10 production in PMBC from patients with rheumatoid arthritis ([3]; anti-CD3 (12.5 ng/ml) + anti-CD28 (1/3x10^5), 10^-7 M, vehicle 836.39±189.09, p 1.000): 805.41±141.23 (1.000) pg/mL
IL-10 production in PMBC from patients with rheumatoid arthritis ([3]; anti-CD3 (12.5 ng/ml) + anti-CD28 (1/3x10^5), 10^-8 M, vehicle 836.39±189.09, p 0.674): 872.06±150.87 (0.674) pg/mL
IL-10 production in PMBC from patients with rheumatoid arthritis ([3]; medium, 10^-6 M, vehicle 452.69±107.47, p 0.674): 682.50±113.65 (0.674) pg/mL
IL-10 production in PMBC from patients with rheumatoid arthritis ([3]; medium, 10^-7 M, vehicle 452.69±107.47, p 0.401): 798.92±144.46 (0.401) pg/mL
IL-10 production in PMBC from patients with rheumatoid arthritis ([3]; medium, 10^-8 M, vehicle 452.69±107.47, p 0.263): 468.14±65.80 (0.263) pg/mL
IFN-gamma production in PMBC from healthy volunteers ([4]; LPS (10µg/ml), 10^-6 M, vehicle 860.42±105.00, p 0.011): 649.61±120.00 (0.011) pg/mL
IFN-gamma production in PMBC from healthy volunteers ([4]; LPS (10µg/ml), 10^-7 M, vehicle 860.42±105.00, p 0.552): 919.53±130.00 (0.552) pg/mL
IFN-gamma production in PMBC from healthy volunteers ([4]; LPS (10µg/ml), 10^-8 M, vehicle 860.42±105.00, p 0.382): 1049.85±230.00 (0.382) pg/mL
IFN-gamma production in PMBC from healthy volunteers ([4]; anti-CD3 (12.5 ng/ml) + anti-CD28 (1/3x10^5), 10^-6 M, vehicle 11802.22±1300.00, p 0.019): 7927.17±1003.00 (0.019) pg/mL
IFN-gamma production in PMBC from healthy volunteers ([4]; anti-CD3 (12.5 ng/ml) + anti-CD28 (1/3x10^5), 10^-7 M, vehicle 11802.22±1300.00, p 0.917): 11552.08±1600.00 (0.917) pg/mL
IFN-gamma production in PMBC from healthy volunteers ([4]; anti-CD3 (12.5 ng/ml) + anti-CD28 (1/3x10^5), 10^-8 M, vehicle 11802.22±1300.00, p 0.196): 10254.66±1500.00 (0.196) pg/mL
IFN-gamma production in PMBC from healthy volunteers ([4]; medium, 10^-6 M, vehicle 283.78±90.00, p 0.279): 189.72±40.00 (0.279) pg/mL
IFN-gamma production in PMBC from healthy volunteers ([4]; medium, 10^-7 M, vehicle 283.78±90.00, p 0.807): 296.28±90.00 (0.807) pg/mL
IFN-gamma production in PMBC from healthy volunteers ([4]; medium, 10^-8 M, vehicle 283.78±90.00, p 0.807): 279.16±60.00 (0.807) pg/mL
TNF-alpha production in PMBC from patients with rheumatoid arthritis ([5]; LPS (10µg/ml), 10^-6 M, vehicle 700.39±180.00, p 0.05): 383.75±75.00 (0.05) pg/ml
TNF-alpha production in PMBC from patients with rheumatoid arthritis ([5]; LPS (10µg/ml), 10^-7 M, vehicle 700.39±180.00, p 0.237): 626.57±150.00 (0.237) pg/ml
TNF-alpha production in PMBC from patients with rheumatoid arthritis ([5]; LPS (10µg/ml), 10^-8 M, vehicle 700.39±180.00, p 0.499): 683.40±120.00 (0.499) pg/ml
TNF-alpha production in PMBC from patients with rheumatoid arthritis ([5]; anti-CD3 (12.5 ng/ml) + anti-CD28 (1/3x10^5), 10^-6 M, vehicle 648.72±90.00, p 0.31): 532.07±80.00 (0.31) pg/ml
TNF-alpha production in PMBC from patients with rheumatoid arthritis ([5]; anti-CD3 (12.5 ng/ml) + anti-CD28 (1/3x10^5), 10^-7 M, vehicle 648.72±90.00, p 0.612): 568.47±97.00 (0.612) pg/ml
TNF-alpha production in PMBC from patients with rheumatoid arthritis ([5]; anti-CD3 (12.5 ng/ml) + anti-CD28 (1/3x10^5), 10^-8 M, vehicle 648.72±90.00, p 0.398): 695.81±79.00 (0.398) pg/ml
TNF-alpha production in PMBC from patients with rheumatoid arthritis ([5]; medium, 10^-6 M, vehicle 100.64±40.00, p 0.735): 177.32±95.00 (0.735) pg/ml
TNF-alpha production in PMBC from patients with rheumatoid arthritis ([5]; medium, 10^-7 M, vehicle 100.64±40.00, p 0.735): 191.33±80.00 (0.735) pg/ml
TNF-alpha production in PMBC from patients with rheumatoid arthritis ([5]; medium, 10^-8 M, vehicle 100.64±40.00, p 0.735): 131.95±85.00 (0.735) pg/ml
